Data published in patent publication US5807535A, “Metal complexes of hydroxyaryl containing aminocarboxylic acid chelating agents” (Australian Nuclear Science & Technology Organisation, priority 1992, dated 1998).
Where two headings read alike, the source gives them in different places.

Legend:
[1] = Biodistribution of 67Ga complexes in mice; format: in vivo, balb/c mice
Protocol: To ligand (50 μL, 10 mg/mL, 0.2 M NaOAc, […]) was added ^67 Ga citrate (18.5 MBq) and the resultant mixture diluted to 1 mL (0.2 M NaOAc, pH 7). The pH was adjusted to 12 with 1 M NaOH (20 μL) and heated at 40° C. for 40 min. The final volume was adjusted (to 5 mL) with saline and sterilised by filtering through a 0.22 μm filter.
Each animal was injected via tail vein with ^67 Ga complex (100 μL, ~3.7×10^5 Bq). Animals were sacrificed at various time intervals (5 animals per time point/6 time points). Data are illustrated in FIG. 26-30 and in Tables 13-17.
Each ^67 Ga-ligand complex has been evaluated in balb/c mice. […] (see FIG. 26-30).

[2] = Biodistribution of 99mTc complexes in rats; format: in vivo, Australian Albino Wistar Rats; settings: for tissue uptake at 0.5 min / tissue uptake at 1 min / tissue uptake at 0.05 h / tissue uptake at 5 min / tissue uptake at 10 min: rat; for tissue uptake at 0.5 min: 30 sec
Protocol: A typical method of radiolabelling of the chelator was achieved by dissolving the chelator in a basic solution of saline. The pH was then adjusted to approx. 6 with HCl. Excess stannous chloride was added to the resultant solution followed by one equivalent volume of sodium ^99m TcO4 (10-50 mCi/ml). Final concentration of the chelator was approx. 1 mg/ml. The efficacy of labelling was determined by ITLC-SG. For each product only one main radiochemical species was observed. Each complex was diluted to 15 μCi/100 μl with saline. […] (See FIGS. 1A and 1B).
Selected data from biodistribution results of technetium-99m complexes of No. 1, No. 2 and No 4 in the liver, kidney and blood at 3 minutes is tabulated below.

[3] = blood, rats, read-out: biodistribution blood
[4] = bone, rats, read-out: biodistribution bone
[5] = brain, rats, read-out: biodistribution brain
[6] = eyes, rats, read-out: biodistribution eyes
[7] = heart, rats, read-out: biodistribution heart
[8] = kidneys, rats, read-out: biodistribution kidneys
[9] = liver, rats, read-out: biodistribution liver
[10] = lungs, rats, read-out: biodistribution lungs
[11] = muscle, rats, read-out: biodistribution muscle
[12] = pancreas, rats, read-out: biodistribution pancreas
[13] = skin, rats, read-out: biodistribution skin
[14] = spleen, rats, read-out: biodistribution spleen
[15] = stomach, rats, read-out: biodistribution stomach
[16] = tail, rats, read-out: biodistribution tail
[17] = thymus, rats, read-out: biodistribution thymus
[18] = thyroid, rats, read-out: biodistribution thyroid
[19] = total git, rats, read-out: biodistribution tot GIT

For `O=C(O)CN(CCN(CC(=O)O)CC(=O)Nc1ccc(Cl)cc1O)CC(=O)Nc1ccc(Cl)cc1O` [Compound 2], the biodistribution bone ([1]; 1 min) was 6.16 % ID, the biodistribution kidney ([1]; 1 min) was 9.54 % ID and the biodistribution liver ([1]; 1 min) was 24.9 % ID. It also gave a biodistribution lungs ([1]; 1 min) of 1.79 % ID, a biodistribution muscle ([1]; 1 min) of 20.55 % ID and a biodistribution skin ([1]; 1 min) of 11.55 % ID. For the same molecule, the biodistribution spleen ([1]; 1 min) was 0.29 % ID, the biodistribution bone ([1]; 3 min) was 2.82 % ID and the biodistribution kidney ([1]; 3 min) was 4.62 % ID. The biodistribution liver ([1]; 3 min) was 35.52 % ID, the biodistribution lungs ([1]; 3 min) was 0.56 % ID and the biodistribution muscle ([1]; 3 min) was 8.63 % ID. The biodistribution skin ([1]; 3 min) was 9.27 % ID, the biodistribution spleen ([1]; 3 min) was 0.1 % ID and the biodistribution bone ([1]; 5 min) was 2.13 % ID. It also gave a biodistribution kidney ([1]; 5 min) of 3.52 % ID, a biodistribution liver ([1]; 5 min) of 33.09 % ID and a biodistribution lungs ([1]; 5 min) of 0.41 % ID. The biodistribution muscle ([1]; 5 min) was 5.50 % ID, the biodistribution skin ([1]; 5 min) was 8.04 % ID and the biodistribution spleen ([1]; 5 min) was 0.07 % ID. The biodistribution bone ([1]; 10 min) was 0.74 % ID, the biodistribution kidney ([1]; 10 min) was 1.00 % ID and the biodistribution liver ([1]; 10 min) was 23.34 % ID. For the same molecule, the biodistribution lungs ([1]; 10 min) was 0.12 % ID, the biodistribution muscle ([1]; 10 min) was 2.00 % ID and the biodistribution skin ([1]; 10 min) was 3.80 % ID. The biodistribution spleen ([1]; 10 min) was 0.02 % ID, the biodistribution bone ([1]; 30 min) was 0.50 % ID and the biodistribution kidney ([1]; 30 min) was 0.21 % ID. It also gave a biodistribution liver ([1]; 30 min) of 3.7 % ID, a biodistribution muscle ([1]; 30 min) of 2.00 % ID and a biodistribution skin ([1]; 30 min) of 0.88 % ID. For the same molecule, the biodistribution spleen ([1]; 30 min) was 0.02 % ID, the biodistribution bone ([1]; 120 min) was 0.38 % ID and the biodistribution kidney ([1]; 120 min) was 0.01 % ID. The biodistribution liver ([1]; 120 min) was 0.92 % ID, the biodistribution muscle ([1]; 120 min) was 0.31 % ID and the biodistribution skin ([1]; 120 min) was 0.17 % ID. For the same molecule, the biodistribution spleen ([1]; 120 min) was 0 % ID, the hepatobiliary passage ([2]; Tables 2 and 4) was “specifically traverse the hepatobiliary system” and the tissue uptake at 0.5 min [2, 3] was 2.79 %ID/g. For the same molecule, the tissue uptake at 1 min [2, 3] was 2.77 %ID/g, the tissue uptake at 0.05 h ([2]; blood, rats, 3 minutes, selected data, read-out: Blood) was 1.32 %ID/g and the tissue uptake at 5 min [2, 3] was 0.94 %ID/g. The tissue uptake at 10 min [2, 3] was 0.77 %ID/g, the tissue uptake at 0.5 min [2, 4] was 0.34 %ID/g and the tissue uptake at 1 min [2, 4] was 0.37 %ID/g. The tissue uptake at 0.05 h ([2]; bone, rats, 3 min, read-out: biodistribution bone) was 0.25 %ID/g, the tissue uptake at 5 min [2, 4] was 0.19 %ID/g and the tissue uptake at 10 min [2, 4] was 0.15 %ID/g. For the same molecule, the tissue uptake at 0.5 min [2, 5] was 0.14 %ID/g, the tissue uptake at 1 min [2, 5] was 0.09 %ID/g and the tissue uptake at 0.05 h ([2]; brain, rats, 3 min, read-out: biodistribution brain) was 0.06 %ID/g. The tissue uptake at 5 min [2, 5] was 0.04 %ID/g, the tissue uptake at 10 min [2, 5] was 0.03 %ID/g and the tissue uptake at 0.5 min [2, 6] was 0.11 %ID/g. The tissue uptake at 1 min [2, 6] was 0.15 %ID/g, the tissue uptake at 0.05 h ([2]; eyes, rats, 3 min, read-out: biodistribution eyes) was 0.12 %ID/g and the tissue uptake at 5 min [2, 6] was 0.1 %ID/g. It also gave a tissue uptake at 10 min [2, 6] of 0.1 %ID/g, a tissue uptake at 0.5 min [2, 7] of 0.87 %ID/g and a tissue uptake at 1 min [2, 7] of 0.93 %ID/g. For the same molecule, the tissue uptake at 0.05 h ([2]; heart, rats, 3 min, read-out: biodistribution heart) was 0.46 %ID/g, the tissue uptake at 5 min [2, 7] was 0.36 %ID/g and the tissue uptake at 10 min [2, 7] was 0.28 %ID/g. For the same molecule, the tissue uptake at 0.05 h ([2]; kidney, rats, 3 minutes, selected data, read-out: Kidney) was 8.9 %ID/g, the tissue uptake at 0.5 min [2, 8] was 6.42 %ID/g and the tissue uptake at 1 min [2, 8] was 8.37 %ID/g. For the same molecule, the tissue uptake at 0.05 h ([2]; kidneys, rats, 3 min, read-out: biodistribution kidneys) was 8.9 %ID/g, the tissue uptake at 5 min [2, 8] was 7.26 %ID/g and the tissue uptake at 10 min [2, 8] was 3.35 %ID/g. It also gave a tissue uptake at 0.5 min [2, 9] of 4.61 %ID/g, a tissue uptake at 1 min [2, 9] of 6.28 %ID/g and a tissue uptake at 0.05 h ([2]; liver, rats, 3 minutes, selected data, read-out: Liver) of 5.93 %ID/g. It also gave a tissue uptake at 5 min [2, 9] of 3.93 %ID/g, a tissue uptake at 10 min [2, 9] of 1.89 %ID/g and a tissue uptake at 0.5 min [2, 10] of 1.2 %ID/g. It also gave a tissue uptake at 1 min [2, 10] of 1.17 %ID/g, a tissue uptake at 0.05 h ([2]; lungs, rats, 3 min, read-out: biodistribution lungs) of 0.79 %ID/g and a tissue uptake at 5 min [2, 10] of 0.59 %ID/g. For the same molecule, the tissue uptake at 10 min [2, 10] was 0.48 %ID/g, the tissue uptake at 0.5 min [2, 11] was 0.22 %ID/g and the tissue uptake at 1 min [2, 11] was 0.24 %ID/g. It also gave a tissue uptake at 0.05 h ([2]; muscle, rats, 3 min, read-out: biodistribution muscle) of 0.2 %ID/g, a tissue uptake at 5 min [2, 11] of 0.16 %ID/g and a tissue uptake at 10 min [2, 11] of 0.11 %ID/g. For the same molecule, the tissue uptake at 0.5 min [2, 12] was 0.49 %ID/g, the tissue uptake at 1 min [2, 12] was 0.66 %ID/g and the tissue uptake at 0.05 h ([2]; pancreas, rats, 3 min, read-out: biodistribution pancreas) was 0.44 %ID/g. The tissue uptake at 5 min [2, 12] was 0.52 %ID/g, the tissue uptake at 10 min [2, 12] was 0.27 %ID/g and the tissue uptake at 0.5 min [2, 13] was 0.29 %ID/g. The tissue uptake at 1 min [2, 13] was 0.45 %ID/g, the tissue uptake at 0.05 h ([2]; skin, rats, 3 min, read-out: biodistribution skin) was 0.42 %ID/g and the tissue uptake at 5 min [2, 13] was 0.35 %ID/g. The tissue uptake at 10 min [2, 13] was 0.33 %ID/g, the tissue uptake at 0.5 min [2, 14] was 0.62 %ID/g and the tissue uptake at 1 min [2, 14] was 0.58 %ID/g. It also gave a tissue uptake at 0.05 h ([2]; spleen, rats, 3 min, read-out: biodistribution spleen) of 0.33 %ID/g, a tissue uptake at 5 min [2, 14] of 0.25 %ID/g and a tissue uptake at 10 min [2, 14] of 0.16 %ID/g. It also gave a tissue uptake at 0.5 min [2, 15] of 0.41 %ID/g, a tissue uptake at 1 min [2, 15] of 0.68 %ID/g and a tissue uptake at 0.05 h ([2]; stomach, rats, 3 min, read-out: biodistribution stomach) of 2.08 %ID/g. For the same molecule, the tissue uptake at 5 min [2, 15] was 0.98 %ID/g, the tissue uptake at 10 min [2, 15] was 0.9 %ID/g and the tissue uptake at 0.5 min [2, 16] was 0.81 %ID/g. The tissue uptake at 1 min [2, 16] was 0.66 %ID/g, the tissue uptake at 0.05 h ([2]; tail, rats, 3 min, read-out: biodistribution tail) was 0.64 %ID/g and the tissue uptake at 5 min [2, 16] was 1.16 %ID/g. It also gave a tissue uptake at 10 min [2, 16] of 0.55 %ID/g, a tissue uptake at 0.5 min [2, 17] of 0.39 %ID/g and a tissue uptake at 1 min [2, 17] of 0.37 %ID/g. The tissue uptake at 0.05 h ([2]; thymus, rats, 3 min, read-out: biodistribution thymus) was 0.27 %ID/g, the tissue uptake at 5 min [2, 17] was 0.17 %ID/g and the tissue uptake at 10 min [2, 17] was 0.15 %ID/g. It also gave a tissue uptake at 0.5 min [2, 18] of 1.41 %ID/g, a tissue uptake at 1 min [2, 18] of 1.71 %ID/g and a tissue uptake at 0.05 h ([2]; thyroid, rats, 3 min, read-out: biodistribution thyroid) of 0.81 %ID/g. For the same molecule, the tissue uptake at 5 min [2, 18] was 0.58 %ID/g, the tissue uptake at 10 min [2, 18] was 0.44 %ID/g and the tissue uptake at 0.5 min [2, 19] was 0.48 %ID/g. It also gave a tissue uptake at 1 min [2, 19] of 0.58 %ID/g, a tissue uptake at 0.05 h ([2]; total git, rats, 3 min, read-out: biodistribution tot GIT) of 1.56 %ID/g and a tissue uptake at 5 min [2, 19] of 2.27 %ID/g. The tissue uptake at 10 min [2, 19] was 3.18 %ID/g, the “liver versus kidney uptake” value ([2]; rats) was “preference for the liver uptake as opposed to the kidney” and the biodistribution blood ([2]; rats, 3 min) was 1.32 % Injected dose per gram. For the same molecule, the biodistribution liver ([2]; rats, 3 min) was 5.93 % Injected dose per gram.
